# “Also recorded” adds a separate entry of the source. Counter-ions that a name gives are not always drawn.
# Experiments:
# male mice = test: acute toxicity, intraperitoneal (lethal doses); type: in vivo, mouse; details: i.p.
# Experimental: By intraperitoneal administration to male mice, the LD-30 (lethal dose for 30% of the animals tested) is of the order of 128 mg/kg and the LD-50 is of the order of about 200 mg/kg.
# mice [1] = test: overall behavior and reactivities in mice; type: in vivo, mouse; details: i.p.
# Experimental: (§1) Groups of three animals are observed before and then 0.25 hour, 0.50 hour, 1 hour, 2 hours, 3 hours and 24 hours after the administration of CRL 41 224.
# rats [2] = test: overall behavior and reactivities in rats; type: in vivo, rat; details: i.p.
# Experimental: as §1
# mice [3] = test: interaction with oxotremorine; type: in vivo, mouse
# Experimental: CRL 41 224 is administered to groups of 6 mice 0.5 hour before the intraperitoneal injection of 0.5 mg/kg of oxotremorine.
# mice [4] = test: four plate test, traction and electric shock; type: in vivo, mouse; details: mice, i.p.
# Experimental: The test is performed on groups of 10 mice 30 minutes after the administration of CRL 41 224.
# mice [5] = test: action on the spontaneous motility (actimeter); type: in vivo, mouse; details: mice, i.p.
# Experimental: 0.5 hour after they have received CRL 41 224, the mice (6 per dose, 12 control animals) are placed in an actimeter, where their motility is recorded for 30 minutes.
# mice [6] = test: action on the intergroup aggression; type: in vivo, mouse; details: i.p.
# Experimental: After they have stayed for 3 weeks in the 2 halves of a cage divided by an opaque partition, groups of 3 mice receive CRL 41 224. Half an hour later, the two groups from the same cage are brought together by removal of the partition, and the number of fights which occur in 10 minutes is noted. Half the test is performed on ordinary mice (NMRI, C.E.R. January) and half on NMRI (Iffa Credo) mice.
# mice [7] = test: asphyxiant anoxia (gallamine triiodoethylate); type: in vivo, mouse; details: i.p.
# Experimental: Groups of 10 mice receive CRL 41 224 half an hour before the intraperitoneal administration of 32 mg/kg of gallamine triiodoethylate (reference curarizing agent).
# mice [8] = test: interaction with barbital; type: in vivo, mouse; details: i.p.
# Experimental: Half an hour after the administration of CRL 41 224, groups of 10 mice receive an intraperitoneal injection of barbital (220 mg/kg).
# mice [9] = test: action on the behavioral despair; type: in vivo, mouse; details: i.p.
# From the text: Half an hour after they have received CRL 41 224, groups of 6 mice are placed in a beaker filled with water to a height of 6 cm. The total period of immobility between the 2nd and 6th minutes following immersion is noted.
# [10] = pH of the aqueous solution as a function of concentration; type: physicochemical
# Experimental: The neuropsychopharmacological study of CRL 41 242 was carried out according to the procedures described above for CRL 41 224, except that the pH of the aqueous solution of CRL 41 242 to be injected intraperitoneally varies as a function of the concentration in the manner indicated in Table III below.
# CNS = test: overall neuropsychopharmacological (CNS) profile; type: in vivo, mouse; rat; details: i.p.
# Experimental: The neuropsychopharmacological study of CRL 41 219 was carried out as indicated above for CRL 41 224.
# The neuropsychopharmacological study of CRL 41 220 was carried out in accordance with the procedures given above for CRL 41 224.
# immunological properties = test: immunological properties, overall; type: in vivo; details: dose not stated; dihydrochloride
# From the text: The present 1-(acetylaminophenyl)-2-aminopropanone derivatives are useful in therapy. They all act on the CNS, more precisely as antidepressants. They have a stimulant or excitant component in their neuropsychopharmacological profile.
# mice [11] = test: interaction with apomorphine in mice; type: in vivo, mouse; details: mice, i.p., 8, 32 and 128 mg/kg; apomorphine 1 or 16 mg/kg s.c.
# Experimental: Groups of 6 mice receive CRL 41 224 0.5 hour before the subcutaneous injection of 1 or 16 mg/kg of apomorphine.
# rats [12] = test: interaction with apomorphine in rats; type: in vivo, rat; details: i.p., 16 and especially 64 mg/kg, apomorphine 0.5 mg/kg s.c.
# Experimental: CRL 41 224 is administered to groups of 6 rats 0.5 hour before the subcutaneous injection of 0.5 mg/kg of apomorphine.
# rats [13] = test: interaction with amphetamine; type: in vivo, rat; details: rats, i.p., 16 and especially 64 mg/kg; amphetamine 2 mg/kg i.p.
# Experimental: Amphetamine (2 mg/kg) is injected intraperitoneally into groups of 6 rats 30 minutes after the administration of CRL 41 224.
# mice [14] = test: interaction with reserpine; type: in vivo, mouse; details: mice, i.p.
# Experimental: Four hours after the intraperitoneal injection of 2.5 mg/kg of reserpine, groups of 6 mice receive CRL 41 224.
# mice [15] = test: motility reduced by habituation to the enclosure; type: in vivo, mouse; details: i.p., 32 and 128 mg/kg
# Experimental: After they have stayed in the actimeters for 18 hours, the mice (6 per dose, 12 control animals) receive CRL 41 224. They are immediately returned to their respective enclosures and, half an hour later, their motility is recorded for 30 minutes.
# mice [16] = test: motility reduced by hypoxic aggression; type: in vivo, mouse; details: i.p., 8, 32 and especially 128 mg/kg
# Experimental: Half an hour after they have received CRL 41 224, the mice (10 per dose, 20 control animals) are subjected to acute hypobaric anoxia [pressure reduction of 600 mm Hg (i.e. about 8×10^4 Pa) in 90 seconds; release of vacuum in 45 seconds] and are then placed in an actimeter, where their motility is recorded for 10 minutes.
# [17] = tested on: peripheral α-adrenergic stimulation; test: signs of peripheral adrenergic stimulation; type: in vivo, mouse; rat; details: i.p.; dose not stated
# Experimental: as §1
smiles,measurement,setting,value
"CC(=O)Nc1ccc(C(=O)C(C)N2CCN(C)CC2)cc1 (centres unmarked) [CRL 41 242, 1-(4-acetylaminophenyl)-2-(4-methylpiperazino)-propanone dihydrochloride]",LD-0 (maximum non-lethal dose),male mice,greater than 256 mg/kg
same,LD-60,male mice,about 500 mg/kg
same,reactivities,mice [1]; high doses,decrease in the reactivities
same,body temperature (hypothermia),mice [1]; strong/high doses,hypothermia in mice
same,sedation,"mice [1]; mice, high doses",sedation in mice
same,sedation,rats [2]; high doses,sedation in mice and rats
same,hypothermia induced by oxotremorine,"mice [3]; i.p., strong/high doses",very moderate antagonism of the hypothermia induced by oxotremorine
same,number of punished passes in the four plate test,mice [4]; high doses,a decrease in the spontaneous motility and the number of punished passes
same,spontaneous motility,mice [5]; high doses,a decrease in the spontaneous motility
same,intergroup aggression,mice [6]; high doses,a reduction in the intergroup aggression
same,time taken for asphyxiant convulsions (and death) to occur,mice [7]; high dose,an increase in the time taken for convulsions and death to occur following asphyxiant anoxia
same,duration of the sleep induced by barbital,mice [8]; strong/high doses,an increase in the duration of the sleep induced by barbital
same,period of immobility of mice forcibly immersed,mice [9]; strong/high doses,a slight reduction in the period of immobility
same,pH of the aqueous solution,[10]; 0.2 g/liter,5.0
same,pH of the aqueous solution,[10]; 0.4 g/liter,4.5
same,pH of the aqueous solution,[10]; 0.8 g/liter,4.0
same,pH of the aqueous solution,[10]; 2 g/liter,3.5
same,pH of the aqueous solution,[10]; 13 g/liter,3.0
same,pH of the aqueous solution,[10]; 50 g/liter,2.5
same,pH of the aqueous solution,[10]; ≤0.05 g/liter,5.5
same,overall action on the CNS,"CNS; strong/high doses, dihydrochloride",sedative effects; also recorded: antidepressant effects
same,effects of the stimulant type,CNS; weak doses,very discreet effects of the stimulant type
same,"immunological properties, overall",immunological properties,beneficial immunomodulating effects; also recorded: particularly valuable as an immunostimulant substance
"CCNC(C)C(=O)c1ccc(NC(C)=O)cc1 (centres unmarked) [CRL 41 224, 1-(4-acetylaminophenyl)-2-ethylaminopropanone hydrochloride]","excitation, duration","mice [1]; mice, 32 mg/kg",3 h
same,"excitation, duration","mice [1]; mice, 128 mg/kg",3 h
same,"hyperthermia, temperature change","mice [1]; mice, 128 mg/kg",+0.9 °C
same,"increase in the reactivity to touch and muscular tonus, duration","mice [1]; mice, 128 mg/kg",24 h
same,"moderate mydriasis, duration","mice [1]; mice, 128 mg/kg",3 h
same,"forms of behavior, reactivities and variations in pupil diameter and rectal temperature","mice [1]; mice, 2 and 8 mg/kg",substantially comparable to those of the control group
same,mydriasis,rats [2]; 1 mg/kg,brief mydriasis
same,"mydriasis, time of appearance after administration",rats [2]; 1 mg/kg,0.5 h
same,"mydriasis, duration",rats [2]; 4 mg/kg,2 h
same,"mydriasis, duration",rats [2]; 16 mg/kg,3 h
same,"stereotypies, duration",rats [2]; 16 mg/kg,3 h
same,"excitation, duration",rats [2]; 64 mg/kg,1 h
same,"hyperthermia, duration",rats [2]; 64 mg/kg,3 h
same,"hyperthermia, temperature change",rats [2]; 64 mg/kg,+1.5 °C
same,"increase in the reactivity to touch and muscular tonus, duration",rats [2]; 64 mg/kg,3 h
same,"mydriasis, duration",rats [2]; 64 mg/kg,3 h
same,"piloerection, duration",rats [2]; 64 mg/kg,1 h
same,"stereotypies, duration",rats [2]; 64 mg/kg,3 h
same,hypothermia induced by apomorphine,mice [11],opposes the hypothermia induced by apomorphine
same,righting behavior and stereotypy behavior (apomorphine),mice [11],without modifying the righting behavior and stereotypy behavior
same,stereotypies induced by apomorphine,rats [12],potentiation of the stereotypies induced by apomorphine
same,stereotypies induced by amphetamine,rats [13],potentiation of the stereotypies induced by amphetamine
same,ptosis induced by reserpine,mice [14]; 128 mg/kg,reduces the intensity of the ptosis induced by reserpine
same,significance of the antagonism of hypothermia induced by reserpine,mice [14]; 32 and 128 mg/kg,significant
same,hypothermia induced by reserpine,"mice [14]; as from 2 mg/kg, reserpine 2.5 mg/kg i.p.",opposes the hypothermia induced by reserpine
same,signs of peripheral cholinergic stimulation induced by oxotremorine,"mice [3]; mice, i.p.",does not modify the signs of peripheral cholinergic stimulation
same,hypothermic action of oxotremorine,"mice [3]; mice, i.p., 2, 8 and especially 32, 128 mg/kg, oxotremorine 0.5 mg/kg i.p.",opposes the hypothermic action of oxotremorine
same,trembling induced by oxotremorine,"mice [3]; mice, i.p., 8, 32 and especially 128 mg/kg",distinctly reduces the intensity of the trembling induced by oxotremorine
same,convulsant effects of electric shock,mice [4]; 128 mg/kg,does not aggravate the convulsant effects
same,lethal effects of electric shock,mice [4]; 128 mg/kg,does not modify the lethal effects of electric shock
same,motor incapacity (traction),mice [4]; 128 mg/kg,does not cause major motor incapacity
same,number of punished passes (four plate test),mice [4]; 128 mg/kg,increase in the number of punished passes
same,spontaneous motor activity,"mice [5]; 8 and especially 32, 128 mg/kg",increases the spontaneous motor activity
same,number of fights,mice [6]; 128 mg/kg,reduces the number of fights
same,motor activity of mice accustomed to their enclosure,mice [15],distinct resumption in the motor activity
same,motor recovery after acute hypobaric anoxia,mice [16],distinct improvement in the motor recovery
same,time taken for convulsions and death to occur following asphyxiant anoxia,"mice [7]; mice, gallamine triiodoethylate 32 mg/kg i.p.",does not change the time taken for convulsions and death to occur
same,antagonism of the sleep induced by barbital,"mice [8]; mice, 32 mg/kg",total antagonism
same,duration of the sleep induced by barbital,"mice [8]; mice, as from 2 mg/kg, barbital 220 mg/kg i.p.",reduces the duration of the sleep induced by barbital
same,period of immobility (forcibly immersed mice),"mice [9]; 8 and especially 32, 128 mg/kg",reduces the period of immobility
same,overall action on the CNS,"CNS; mice and rats, dose not stated, hydrochloride",antidepressant effects; also recorded: stimulant effects; also recorded: behaves as an antidepressant for the CNS
same,"peripheral adrenergic stimulation, overall",[17],peripheral α-adrenergic stimulant effects

# — patent publication US4963570A, “1-(acetylaminophenyl)-2-aminopropanone derivatives and pharmaceutical compositions thereof” (Laboratoire L. Lafon, priority 1983, dated 1990)
